Laboratory results published in article PMC9150124, “Design of a Potent, Selective, and Brain-Penetrant Inhibitor of Wnt-Deactivating Enzyme Notum by Optimization of a Crystallographic Fragment Hit” (Journal of Medicinal Chemistry, 2022).
Converted amounts (≈) assume the structure as drawn. “Also recorded” adds a separate entry of the source. Where two headings read alike, the source gives them in different places.

How the values were obtained:
[1] = target: kinase named in conditions (Homo sapiens, UniProt O00329); test: SelectScreen kinase profiling, SSBK Adapta SP Technology; assay type: biochemical; settings: PIK3CD/PIK3R1 (p110 delta/p85 alpha), 10 μM
[2] = target: kinase named in conditions (Homo sapiens, UniProt O00443); test: as above; assay type: biochemical; settings: PIK3C2A (PI3K-C2 alpha), 10 μM
[3] = target: kinase named in conditions (Homo sapiens, UniProt O00750); test: as above; assay type: biochemical; settings: PIK3C2B (PI3K-C2 beta), 10 μM
[4] = target: kinase named in conditions (Homo sapiens, UniProt O14986); test: as above; assay type: biochemical; settings: PIP5K1B, 10 μM
[5] = target: kinase named in conditions (Homo sapiens, UniProt O15111); test: as above; assay type: biochemical; settings: CHUK (IKK alpha), 10 μM
[6] = target: kinase named in conditions (Homo sapiens, UniProt O60285); test: as above; assay type: biochemical; settings: NUAK1 (ARK5), 10 μM
[7] = target: kinase named in conditions (Homo sapiens, UniProt O60331); test: as above; assay type: biochemical; settings: PIP5K1C, 10 μM
[8] = target: kinase named in conditions (Homo sapiens, UniProt O75747); test: as above; assay type: biochemical; settings: PIK3C2G (PI3K-C2 gamma), 10 μM
[9] = target: kinase named in conditions (Homo sapiens, UniProt P11802); test: as above; assay type: biochemical
[10] = target: kinase named in conditions (Homo sapiens, UniProt P42336); test: as above; assay type: biochemical; settings: 10 μM
[11] = target: kinase named in conditions (Homo sapiens, UniProt P42336, E542K); test: as above; assay type: biochemical; settings: PIK3CA E542K/PIK3R1 (p110 alpha E542K/p85 alpha), 10 μM
[12] = target: kinase named in conditions (Homo sapiens, UniProt P42336, E545K); test: as above; assay type: biochemical; settings: PIK3CA E545K/PIK3R1 (p110 alpha E545K/p85 alpha), 10 μM
[13] = target: kinase named in conditions (Homo sapiens, UniProt P42338); test: as above; assay type: biochemical; settings: 10 μM
[14] = target: kinase named in conditions (Homo sapiens, UniProt P42356); test: as above; assay type: biochemical; settings: PI4KA (PI4K alpha), 10 μM
[15] = target: kinase named in conditions (Homo sapiens, UniProt P48426); test: as above; assay type: biochemical; settings: PIP4K2A, 10 μM
[16] = target: kinase named in conditions (Homo sapiens, UniProt P48736); test: as above; assay type: biochemical; settings: PIK3CG (p110 gamma), 10 μM
[17] = target: kinase named in conditions (Homo sapiens, UniProt P50613); test: as above; assay type: biochemical; settings: CDK7/cyclin H/MNAT1, 10 μM
[18] = target: kinase named in conditions (Homo sapiens, UniProt P50750); test: as above; assay type: biochemical; settings: CDK9/cyclin T1, 10 μM
[19] = target: kinase named in conditions (Homo sapiens, UniProt Q00534); test: as above; assay type: biochemical; settings: CDK6/cyclin D1, 10 μM
[20] = target: kinase named in conditions (Homo sapiens, UniProt Q14012); test: as above; assay type: biochemical; settings: CAMK1 (CaMK1), 10 μM
[21] = target: kinase named in conditions (Homo sapiens, UniProt Q5S007); test: as above; assay type: biochemical; settings: LRRK2 FL, 10 μM
[22] = target: kinase named in conditions (Homo sapiens, UniProt Q5S007, G2019S); test: as above; assay type: biochemical; settings: LRRK2 G2019S FL, 10 μM
[23] = target: kinase named in conditions (Homo sapiens, UniProt Q8NEB9); test: as above; assay type: biochemical; settings: PIK3C3 (hVPS34), 10 μM
[24] = target: kinase named in conditions (Homo sapiens, UniProt Q8TCG2); test: as above; assay type: biochemical; settings: PI4K2B (PI4K2 beta), 10 μM
[25] = target: kinase named in conditions (Homo sapiens, UniProt Q8TF76); test: as above; assay type: biochemical; settings: GSG2 (Haspin), 10 μM
[26] = target: kinase named in conditions (Homo sapiens, UniProt Q99755); test: as above; assay type: biochemical; settings: PIP5K1A, 10 μM
[27] = target: kinase named in conditions (Homo sapiens, UniProt Q9BTU6); test: as above; assay type: biochemical; settings: PI4K2A (PI4K2 alpha), 10 μM
[28] = target: kinase named in conditions (Homo sapiens, UniProt Q9UBF8); test: as above; assay type: biochemical; settings: PI4KB (PI4K beta), 10 μM
[29] = tested on: kinase named in conditions; test: as above; assay type: biochemical
[30] = Solubility in dose formulations (cosolvents); assay type: physicochemical
[31] = tested on: CYP450 enzymes; test: CYP time-dependent inactivation (IC50 shift); assay type: in vitro ADME, human; settings: HLM preincubation ± NADPH

Chain of kinase named in conditions (Homo sapiens, UniProt O00443) (O00443 whole entry): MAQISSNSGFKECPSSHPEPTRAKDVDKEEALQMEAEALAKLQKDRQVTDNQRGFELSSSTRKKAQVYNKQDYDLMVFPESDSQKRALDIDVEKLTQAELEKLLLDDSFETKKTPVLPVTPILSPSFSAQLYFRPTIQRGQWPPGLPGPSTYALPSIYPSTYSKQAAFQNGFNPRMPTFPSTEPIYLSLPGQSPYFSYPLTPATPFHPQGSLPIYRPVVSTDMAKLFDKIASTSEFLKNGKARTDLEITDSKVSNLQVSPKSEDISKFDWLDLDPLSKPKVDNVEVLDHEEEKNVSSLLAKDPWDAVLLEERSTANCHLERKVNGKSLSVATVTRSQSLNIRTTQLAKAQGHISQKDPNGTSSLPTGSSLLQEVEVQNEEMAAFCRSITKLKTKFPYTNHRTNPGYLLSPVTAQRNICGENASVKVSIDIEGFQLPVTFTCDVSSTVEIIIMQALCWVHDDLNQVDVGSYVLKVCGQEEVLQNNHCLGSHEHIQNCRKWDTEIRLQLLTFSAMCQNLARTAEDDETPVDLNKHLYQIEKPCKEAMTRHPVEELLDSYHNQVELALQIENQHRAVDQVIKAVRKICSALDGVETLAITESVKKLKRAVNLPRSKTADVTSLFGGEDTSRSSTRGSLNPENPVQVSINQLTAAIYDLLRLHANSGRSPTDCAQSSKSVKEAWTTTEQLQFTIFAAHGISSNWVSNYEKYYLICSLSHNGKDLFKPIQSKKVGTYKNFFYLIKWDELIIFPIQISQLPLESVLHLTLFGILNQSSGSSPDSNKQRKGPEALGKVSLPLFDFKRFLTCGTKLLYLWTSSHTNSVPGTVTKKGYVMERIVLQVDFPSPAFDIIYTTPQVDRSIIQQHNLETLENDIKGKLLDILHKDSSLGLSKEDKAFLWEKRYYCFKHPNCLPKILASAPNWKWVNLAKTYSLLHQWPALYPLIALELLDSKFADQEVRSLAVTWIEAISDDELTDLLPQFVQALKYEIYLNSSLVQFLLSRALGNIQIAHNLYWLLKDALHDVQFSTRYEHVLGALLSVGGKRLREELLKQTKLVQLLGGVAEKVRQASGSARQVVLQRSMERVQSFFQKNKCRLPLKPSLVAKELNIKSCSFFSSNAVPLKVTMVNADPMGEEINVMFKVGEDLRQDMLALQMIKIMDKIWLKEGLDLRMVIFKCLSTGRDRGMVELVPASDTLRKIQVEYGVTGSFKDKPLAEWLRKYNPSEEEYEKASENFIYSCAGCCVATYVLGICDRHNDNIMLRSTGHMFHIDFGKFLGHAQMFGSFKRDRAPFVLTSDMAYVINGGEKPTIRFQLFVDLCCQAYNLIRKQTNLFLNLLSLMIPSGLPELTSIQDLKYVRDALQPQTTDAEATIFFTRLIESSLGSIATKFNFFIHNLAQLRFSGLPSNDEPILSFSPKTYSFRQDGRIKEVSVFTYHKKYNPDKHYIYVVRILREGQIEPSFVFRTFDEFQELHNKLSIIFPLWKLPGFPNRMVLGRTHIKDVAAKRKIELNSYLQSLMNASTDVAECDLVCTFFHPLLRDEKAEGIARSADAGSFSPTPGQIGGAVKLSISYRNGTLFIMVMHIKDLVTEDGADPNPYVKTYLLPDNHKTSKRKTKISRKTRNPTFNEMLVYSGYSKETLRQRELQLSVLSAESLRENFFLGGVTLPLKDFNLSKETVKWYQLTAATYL
Chain of kinase named in conditions (Homo sapiens, UniProt O75747) (O75747 whole entry): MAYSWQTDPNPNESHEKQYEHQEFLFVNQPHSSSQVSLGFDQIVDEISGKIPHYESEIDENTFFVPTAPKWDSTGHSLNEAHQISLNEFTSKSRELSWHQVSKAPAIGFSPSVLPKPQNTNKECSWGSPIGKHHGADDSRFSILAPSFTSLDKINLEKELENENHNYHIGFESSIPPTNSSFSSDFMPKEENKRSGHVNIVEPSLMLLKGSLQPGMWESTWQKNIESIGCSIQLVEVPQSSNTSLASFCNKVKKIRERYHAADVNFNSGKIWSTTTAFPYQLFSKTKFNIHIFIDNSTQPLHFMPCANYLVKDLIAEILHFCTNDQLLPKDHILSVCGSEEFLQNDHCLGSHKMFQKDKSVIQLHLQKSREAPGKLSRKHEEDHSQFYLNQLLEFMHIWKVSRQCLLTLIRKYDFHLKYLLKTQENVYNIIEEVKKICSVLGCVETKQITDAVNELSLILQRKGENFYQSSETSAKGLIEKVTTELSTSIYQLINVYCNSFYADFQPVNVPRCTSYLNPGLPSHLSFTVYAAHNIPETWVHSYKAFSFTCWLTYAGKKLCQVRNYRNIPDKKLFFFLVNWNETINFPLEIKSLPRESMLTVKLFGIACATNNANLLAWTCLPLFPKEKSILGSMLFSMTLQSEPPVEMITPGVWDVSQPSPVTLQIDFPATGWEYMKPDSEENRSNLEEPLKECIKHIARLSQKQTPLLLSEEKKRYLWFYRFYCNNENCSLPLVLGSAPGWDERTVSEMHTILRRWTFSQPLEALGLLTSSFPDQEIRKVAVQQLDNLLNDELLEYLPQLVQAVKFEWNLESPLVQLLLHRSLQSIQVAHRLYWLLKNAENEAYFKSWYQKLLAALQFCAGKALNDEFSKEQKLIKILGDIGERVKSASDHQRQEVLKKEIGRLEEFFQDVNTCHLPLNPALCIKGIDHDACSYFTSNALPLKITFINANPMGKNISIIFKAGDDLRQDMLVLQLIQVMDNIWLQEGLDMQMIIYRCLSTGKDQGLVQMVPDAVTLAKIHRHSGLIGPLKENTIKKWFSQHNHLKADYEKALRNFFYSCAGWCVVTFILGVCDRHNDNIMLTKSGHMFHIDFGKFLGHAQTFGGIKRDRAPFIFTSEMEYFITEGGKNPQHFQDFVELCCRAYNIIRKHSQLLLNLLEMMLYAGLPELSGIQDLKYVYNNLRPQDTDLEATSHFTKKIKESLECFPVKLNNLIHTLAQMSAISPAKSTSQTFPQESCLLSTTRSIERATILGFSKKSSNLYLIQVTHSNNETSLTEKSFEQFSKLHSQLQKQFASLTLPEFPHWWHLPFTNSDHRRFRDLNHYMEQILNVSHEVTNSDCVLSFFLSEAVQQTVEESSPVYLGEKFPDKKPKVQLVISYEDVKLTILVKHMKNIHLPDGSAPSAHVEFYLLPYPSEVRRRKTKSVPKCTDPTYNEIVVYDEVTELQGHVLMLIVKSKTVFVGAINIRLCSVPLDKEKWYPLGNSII
Chain of kinase named in conditions (Homo sapiens, UniProt O00750) (O00750 whole entry): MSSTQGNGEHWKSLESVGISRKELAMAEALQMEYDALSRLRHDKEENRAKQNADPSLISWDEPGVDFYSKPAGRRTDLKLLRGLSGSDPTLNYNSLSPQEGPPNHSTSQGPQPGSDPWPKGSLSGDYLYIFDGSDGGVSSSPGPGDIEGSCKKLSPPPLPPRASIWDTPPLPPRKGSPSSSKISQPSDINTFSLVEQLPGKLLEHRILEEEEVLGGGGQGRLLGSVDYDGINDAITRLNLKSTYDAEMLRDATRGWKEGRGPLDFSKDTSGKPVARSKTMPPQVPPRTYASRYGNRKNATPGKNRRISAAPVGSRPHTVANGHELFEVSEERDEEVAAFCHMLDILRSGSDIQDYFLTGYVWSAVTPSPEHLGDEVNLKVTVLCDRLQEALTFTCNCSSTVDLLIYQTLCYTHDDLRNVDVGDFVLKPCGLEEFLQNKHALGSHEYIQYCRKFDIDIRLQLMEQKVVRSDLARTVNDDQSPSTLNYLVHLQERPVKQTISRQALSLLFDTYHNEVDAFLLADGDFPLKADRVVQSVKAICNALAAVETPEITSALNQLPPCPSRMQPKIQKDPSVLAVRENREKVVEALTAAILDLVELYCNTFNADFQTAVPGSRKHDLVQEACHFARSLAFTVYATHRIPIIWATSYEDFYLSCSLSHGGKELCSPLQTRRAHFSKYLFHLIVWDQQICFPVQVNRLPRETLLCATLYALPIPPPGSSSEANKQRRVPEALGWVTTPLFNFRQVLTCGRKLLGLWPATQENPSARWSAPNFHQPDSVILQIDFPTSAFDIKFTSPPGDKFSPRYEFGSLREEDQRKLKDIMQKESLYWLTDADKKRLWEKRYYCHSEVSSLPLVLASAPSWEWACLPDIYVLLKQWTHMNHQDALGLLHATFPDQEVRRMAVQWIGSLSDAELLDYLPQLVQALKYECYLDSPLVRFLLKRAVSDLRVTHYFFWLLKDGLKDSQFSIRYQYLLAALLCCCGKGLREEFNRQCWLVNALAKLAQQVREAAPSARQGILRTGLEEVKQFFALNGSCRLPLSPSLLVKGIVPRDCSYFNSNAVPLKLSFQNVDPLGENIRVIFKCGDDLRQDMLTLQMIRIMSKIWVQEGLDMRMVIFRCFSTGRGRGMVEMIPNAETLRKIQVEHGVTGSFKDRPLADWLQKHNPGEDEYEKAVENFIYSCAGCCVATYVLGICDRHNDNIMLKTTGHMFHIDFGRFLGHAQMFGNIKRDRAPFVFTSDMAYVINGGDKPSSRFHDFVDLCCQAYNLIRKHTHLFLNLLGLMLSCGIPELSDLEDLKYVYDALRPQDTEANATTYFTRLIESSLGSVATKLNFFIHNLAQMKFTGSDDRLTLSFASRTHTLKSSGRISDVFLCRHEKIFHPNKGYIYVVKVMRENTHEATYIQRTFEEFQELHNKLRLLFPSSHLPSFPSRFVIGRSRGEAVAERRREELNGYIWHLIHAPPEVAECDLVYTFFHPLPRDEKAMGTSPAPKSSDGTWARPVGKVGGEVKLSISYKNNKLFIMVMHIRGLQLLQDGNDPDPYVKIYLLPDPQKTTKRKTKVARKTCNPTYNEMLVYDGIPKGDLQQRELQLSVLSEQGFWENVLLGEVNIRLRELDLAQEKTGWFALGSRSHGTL

Compound: FC(F)(F)c1c(Cl)ccc(-n2ccnn2)c1Cl [8l, 1-(2,4-Dichloro-3-(trifluoromethyl)phenyl)-1H-1,2,3-triazole]
- inhibition at 10 µM [1]: -25%
- inhibition at 10 µM [2]: -10%
- inhibition at 10 µM [3]: 8%
- inhibition at 10 µM [4]: 1%
- inhibition at 10 µM [5]: 4%
- inhibition at 10 µM [6]: -3%
- inhibition at 10 µM [7]: -2%
- inhibition at 10 µM [8]: 11%
- inhibition at 10 µM ([9]; CDK4/cyclin D1, 10 μM): 6%
- inhibition at 10 µM ([9]; CDK4/cyclin D3, 10 μM): 4%
- inhibition at 10 µM ([10]; PIK3CA/PIK3R1 (p110 alpha/p85 alpha)): -6%
- inhibition at 10 µM ([10]; PIK3CA/PIK3R3 (p110 alpha/p55 gamma)): 0%
- inhibition at 10 µM [11]: 6%
- inhibition at 10 µM [12]: 8%
- inhibition at 10 µM ([13]; PIK3CB/PIK3R1 (p110 beta/p85 alpha)): 1%
- inhibition at 10 µM ([13]; PIK3CB/PIK3R2 (p110 beta/p85 beta)): 15%
- inhibition at 10 µM [14]: -4%
- inhibition at 10 µM [15]: -1%
- inhibition at 10 µM [16]: -15%
- inhibition at 10 µM [17]: -3%
- inhibition at 10 µM [18]: -3%
- inhibition at 10 µM [19]: -3%
- inhibition at 10 µM [20]: 11%
- inhibition at 10 µM [21]: 7%
- inhibition at 10 µM [22]: 15%
- inhibition at 10 µM [23]: -5%
- inhibition at 10 µM [24]: 16%
- inhibition at 10 µM [25]: 10%
- inhibition at 10 µM [26]: 0%
- inhibition at 10 µM [27]: 13%
- inhibition at 10 µM [28]: 1%
- % Inhibition mean ([29]; DAPK1, 10 μM): -8%
- % Inhibition mean ([29]; IRAK1, 10 μM): -10%
- % Inhibition mean ([29]; LRRK2, 10 μM): -12%
- % Inhibition mean ([29]; LRRK2 G2019S, 10 μM): 1%
- % Inhibition mean ([29]; LRRK2 I2020T, 10 μM): 1%
- % Inhibition mean ([29]; LRRK2 R1441C, 10 μM): 1%
- % Inhibition mean ([29]; SPHK1, 10 μM): -8%
- % Inhibition mean ([29]; SPHK2, 10 μM): 0%
- solubility ([30]; 2% DMSO in PBS (with 10% solutol v/v), read-out: Solubility): 3000 µg/mL (≈ 10.6 mM)
- Mean Concentration of dose formulation ([30]; 20% w/v HPßCD in Water): 1.00 mg/mL
- Mean Concentration of dose formulation ([30]; DMSO (2%v/v) + 10% v/v HPßCD in WFI (98% v/v/)): 1.02 mg/mL
- Mean Concentration of dose formulation ([30]; DMSO (2%v/v) + 10% v/v Solutol in PBS (98% v/v)): 0.96 mg/mL
- solubility ([30]; dose formulations with cosolvents, read-out: aqueous solubility with cosolvents): 1000 µg/mL (≈ 3.55 mM)
- CYP TDI [31]: no evidence for CYP time-dependent inactivation (TDI); also recorded: negative
